Consider 13 molecules from PubChem BioAssay (NCI).

Among the test systems are OVCAR-3 ovarian; SF-539 CNS; A549 NSCLC; HCT-15 colon; MOLT-4 leukemia; COLO 205 colon; EKVX NSCLC; NCI-H226 lung; CCRF-CEM leukemia; NCI-H23 lung; UO-31 renal.
Common to all, as to test: inhibition of tumour cell growth, NCI panel, 48 h

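1) Cells in 96-well plates. 2) Compound, 48 h, 5 concentrations. 3) Linear interpolation between surrounding doses. 4) Unreached endpoint = highest concentration. At the GI50, growth is halved. TGI marks complete inhibition of growth.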 Bounds are passed on as bounds.

`CSc1cc(Cl)c(C)cc1S(=O)(=O)NC(=O)NNc1ccc(F)cc1`: the TGI in the assay with OVCAR-3 ovarian, in the assay on SF-539 CNS, in the assay with A549 NSCLC, with HCT-15 colon, in the assay with MOLT-4 leukemia and with COLO 205 colon was more than 100 µM in each case. Also, the TGI in the assay on EKVX NSCLC and with NCI-H226 lung was more than 100 µM each time.

With `CC(C)=CC1C(C(=O)Oc2ccccc2C(C)C)C1(C)C` (centres undefined), the TGI in the assay on CCRF-CEM leukemia is 59.6 µM; in the assay with OVCAR-3 ovarian, 34.6 µM; in the assay with NCI-H23 lung, 65.4 µM; in the assay on A549 NSCLC, more than 100 µM; with HCT-15 colon, 53.1 µM; with UO-31 renal, 34.6 µM. The same molecule showed a TGI in the assay on EKVX NSCLC of 36.5 µM.

In the case of `CC(=O)O[C@H]1C(=O)[C@@]2(C)[C@H]([C@H](OC(=O)c3ccccc3)[C@]3(O)C[C@H](OC(=O)[C@H](O)[C@@H](NC(=O)c4ccccc4)c4ccc5ccccc5c4)C(C)=C1C3(C)C)[C@]1(OC(C)=O)CO[C@@H]1C[C@@H]2O`, the TGI is more than 11.2 µM with CCRF-CEM leukemia; 0.152 µM in the assay with SF-539 CNS; more than 45.4 µM in the assay on NCI-H23 lung; more than 42.1 µM with A549 NSCLC; 8.4 µM in the assay on HCT-15 colon; 1.09 µM in the assay with MOLT-4 leukemia. Further, the results for the TGI in the assay with UO-31 renal, in the assay with COLO 205 colon and with EKVX NSCLC were more than 50 µM, 0.319 µM and more than 50 µM, respectively.

For the molecule `COc1cc(C2S/C(=C/c3ccccc3)C(=O)N2Cc2ccccc2)cc(OC)c1OC` (centres undefined), the TGI in the assay on CCRF-CEM leukemia is 87.2 µM; in the assay with NCI-H23 lung it was more than 100 µM; with A549 NSCLC it was more than 100 µM; in the assay with HCT-15 colon, more than 100 µM; with MOLT-4 leukemia it was more than 100 µM; with UO-31 renal, more than 100 µM. The TGI in the assay with COLO 205 colon, with EKVX NSCLC and in the assay with NCI-H226 lung was more than 100 µM each time.

For `Cc1cc2cc3cc(C)c(N)cc3nc2cc1N`, the TGI was 2.52 µM in the assay on CCRF-CEM leukemia; 1.85 µM in the assay on OVCAR-3 ovarian; 2.24 µM in the assay on NCI-H23 lung; 2.07 µM with A549 NSCLC; 2.2 µM in the assay on HCT-15 colon; 0.894 µM with MOLT-4 leukemia. Moreover, the TGI with UO-31 renal turned out to be 10.4 µM; with COLO 205 colon it was 1.98 µM; in the assay with EKVX NSCLC, 1.47 µM; in the assay on NCI-H226 lung, 11.7 µM.

As to `COC1=C[C@]2(CCC(=O)O2)[C@@H]2Cc3ccccc3[C@H](O)[C@@H]2C1=O`, the TGI was 35.8 µM in the assay on CCRF-CEM leukemia; more than 100 µM in the assay with OVCAR-3 ovarian; more than 100 µM in the assay with NCI-H23 lung; more than 100 µM in the assay on A549 NSCLC; more than 100 µM in the assay on HCT-15 colon; 38.9 µM in the assay with MOLT-4 leukemia. Moreover, the TGI with UO-31 renal, with COLO 205 colon, in the assay on EKVX NSCLC and in the assay with NCI-H226 lung was more than 100 µM in each case.

Take `CCc1cc(C)cc2[n+]1CC=C2`: the TGI came to 95.6 µM in the assay with SF-539 CNS; 53.8 µM with NCI-H23 lung; 78.6 µM in the assay on A549 NSCLC; 68.9 µM in the assay on UO-31 renal; 81.5 µM with COLO 205 colon; 87.9 µM in the assay with EKVX NSCLC. Also, the TGI with NCI-H226 lung amounted to 80.8 µM.

As for `CCC(C)(C)c1cc(O)c(C(C)(C)CC)cc1O`, the GI50 is 2.78 µM with OVCAR-3 ovarian; 2.7 µM in the assay on SF-539 CNS; 3.18 µM in the assay with NCI-H23 lung; 3.2 µM in the assay on A549 NSCLC; 3.66 µM with HCT-15 colon; 2.42 µM in the assay with COLO 205 colon. The GI50 was 2.54 µM in the assay with EKVX NSCLC and 3.63 µM in the assay on NCI-H226 lung. Besides, the TGI was 7.54 µM in the assay on OVCAR-3 ovarian; 9.23 µM in the assay with SF-539 CNS; 12.4 µM in the assay on NCI-H23 lung; 11.9 µM in the assay on A549 NSCLC; 15.1 µM in the assay on HCT-15 colon; 5.28 µM in the assay with COLO 205 colon. Besides, the TGI with EKVX NSCLC was 14.6 µM; in the assay on NCI-H226 lung it was 15.2 µM.

On to `Cc1ccccc1NC(=O)Cc1csc(N/N=C2\NC(=O)/C(=C/c3cccc([N+](=O)[O-])c3)S2)n1`, for which the TGI was 52.3 µM with OVCAR-3 ovarian; 33.4 µM in the assay on SF-539 CNS; 42.7 µM with NCI-H23 lung; 44.5 µM in the assay on A549 NSCLC; 29.3 µM in the assay on HCT-15 colon; more than 100 µM in the assay on MOLT-4 leukemia. Also, the TGI is 25.8 µM in the assay on UO-31 renal, more than 100 µM in the assay with COLO 205 colon, 32.8 µM in the assay on EKVX NSCLC and 39.1 µM with NCI-H226 lung.

For the molecule `CC(C)C(Nc1ncnc2nc[nH]c12)C(=O)O` (centres undefined), the TGI in the assay on CCRF-CEM leukemia, in the assay on OVCAR-3 ovarian, in the assay with NCI-H23 lung, with A549 NSCLC, with HCT-15 colon and with UO-31 renal was more than 100 µM in each case. In addition, the TGI with COLO 205 colon, in the assay with EKVX NSCLC and in the assay with NCI-H226 lung was more than 100 µM in each case.

Regarding `Nn1c(Nc2ccc(S(N)(=O)=O)cc2)nnc(/C=C/c2c(O)ccc3ccccc23)c1=O`, the TGI is 18.8 µM in the assay on CCRF-CEM leukemia; 42.8 µM in the assay on OVCAR-3 ovarian; more than 100 µM with SF-539 CNS; 22.4 µM in the assay with NCI-H23 lung; 92.4 µM with A549 NSCLC; 30.4 µM in the assay with HCT-15 colon. Moreover, the TGI in the assay with MOLT-4 leukemia turned out to be 0.805 µM; in the assay with UO-31 renal, 57.3 µM; in the assay with COLO 205 colon it was 88.1 µM; with EKVX NSCLC, 34.2 µM.

`Cc1nnc(N)nc1/C=C\c1ccc(Cl)cc1Cl`: the TGI in the assay on CCRF-CEM leukemia is 86.4 µM; with NCI-H23 lung it was more than 100 µM; in the assay with A549 NSCLC, more than 100 µM; in the assay with HCT-15 colon, more than 100 µM; in the assay on MOLT-4 leukemia, more than 100 µM; with UO-31 renal, more than 100 µM. For the same molecule, the TGI with COLO 205 colon was 55.8 µM; in the assay on EKVX NSCLC, more than 100 µM; in the assay with NCI-H226 lung, 46.2 µM.

As to `O=c1c2c3c(sc2nc2n1N=CN(c1ccccc1)C2)CCCC3`, the TGI in the assay on CCRF-CEM leukemia, in the assay with OVCAR-3 ovarian, with NCI-H23 lung, with A549 NSCLC, in the assay with HCT-15 colon and in the assay on MOLT-4 leukemia was more than 100 µM throughout. Also, the TGI with UO-31 renal, in the assay on COLO 205 colon, in the assay with EKVX NSCLC and in the assay with NCI-H226 lung was more than 100 µM each time.
